Some results are limits rather than exact numbers.

Data set [1] can be described thus: Cytotoxicity against PEK cells after 24 hrs. The data set is classed as cell-based, Sus scrofa. The settings on record: pig.
A short description of data set [2]: Cytotoxicity against PEK cells after 7 days. The conditions noted are these: pig. The data set is classed as cell-based, Sus scrofa.
The test system of data set [3] is Tick-borne encephalitis virus. The data set can be described thus: Antiviral activity against Tick-borne encephalitis virus Absettarov infected in PEK cells assessed as reduction in viral plaque formation incubated for 1 hr measured after 6 days by gentian violet staining. The format is functional, cell-based.
For data set [4], the system named is Tick-borne encephalitis virus. The data set can be described thus: Antiviral activity against Tick-borne encephalitis virus Absettarov infected in PEK cells assessed as reduction in viral plaque formation compounds preincubated with cells for 1 hr followed by addition of virus with subsequent incubation of 1 hr by gentian violet staining. The format is functional, cell-based.

Data set [5] concerns Tick-borne encephalitis virus. The data set can be described thus: Antiviral activity against Tick-borne encephalitis virus Absettarov infected in PEK cells assessed as reduction in viral plaque formation compounds preincubated with virus for 1 hr followed by addition of cells with subsequent incubation of 1 hr measured after 6 days by gentian violet staining. The format is functional, cell-based.

For the next data set, the system named is Human alphaherpesvirus 1. Description: Antiviral activity against HSV1 KOS infected in African green monkey Vero cells treated for 10 mins measured after 1 to 2 days by crystal violet staining-based assay. The data set is classed as functional, organism-based. The settings on record: Human alphaherpesvirus 1, KOS.
For the next data set, the system named is Human alphaherpesvirus 2. The data set can be described thus: Antiviral activity against HSV2 186 infected in African green monkey Vero cells treated for 10 mins measured after 1 to 2 days by crystal violet staining-based assay. The settings on record: Human alphaherpesvirus 2, strain 186, Vero. The data set is classed as functional, cell-based.
Data set [6] relates to Vesicular stomatitis virus. Description: Antiviral activity against VSV infected in African green monkey Vero cells treated for 10 mins measured after 1 to 2 days by crystal violet staining-based assay. The data set is classed as functional, organism-based.
In a further data set the test system is Sindbis virus. Description: Antiviral activity against Sindbis virus infected in African green monkey Vero cells treated for 10 mins measured after 1 to 2 days by crystal violet staining-based assay. The data set is classed as functional, organism-based.
In another data set the test system is Hepatitis C virus. Description: Antiviral activity against HCV JFH-1 infected in human Huh7.5 cells treated for 10 mins measured after 72 hrs by immunocytochemical assay. The data set is classed as functional, organism-based, Hepacivirus hominis. The conditions noted are these: JFH-1, Huh-7.
For data set [7], the system named is Influenza A virus. Description: Antiviral activity against Influenza virus A/PR/8/34 (H1N1) infected in MDCK cells treated for 10 mins measured after 1 hr by neutral red or crystal violet staining-based assay. The format is functional, organism-based. The settings on record: A/Puerto Rico/8/1934(H1N1).
A short description of data set [8]: Antiviral activity against Influenza virus A/USSR/90/77 (H1N1) infected in MDCK cells treated for 10 mins measured after 1 hr by neutral red or crystal violet staining-based assay. The format is functional, cell-based, Influenza A virus (A/USSR/90/1977(H1N1)).
Data set [9] is described as follows: Antiviral activity against Influenza virus A/Aichi/2/68 (H3N2) infected in MDCK cells treated for 10 mins measured after 1 hr by neutral red or crystal violet staining-based assay. The data set is classed as functional, cell-based, Influenza A virus (A/Aichi/2/1968(H3N2)).
Data set [10] deals with Influenza A virus. Description: Antiviral activity against Influenza virus A/PC/1/73 (H3N2) infected in MDCK cells treated for 10 mins measured after 1 hr by neutral red or crystal violet staining-based assay. The format is functional, organism-based.
The subject of data set [11] is Tick-borne encephalitis virus. Description: Antiviral activity against 2 PFU Tick-borne encephalitis virus Absettarov infected in PEK cells assessed as inhibition of viral titer at 200 EC50 for simultaneous addition of compound/cells/virus incubated for 1 hr measured after 6 days by gentian violet staining. The format is functional.
Data set [12] deals with Tick-borne encephalitis virus. Description: Antiviral activity against 22 PFU Tick-borne encephalitis virus Absettarov infected in PEK cells assessed as inhibition of viral titer at 200 EC50 for simultaneous addition of compound/cells/virus incubated for 1 hr measured after 6 days by gentian violet staining. The format is functional.
Data set [13] deals with Tick-borne encephalitis virus. The data set can be described thus: Antiviral activity against 2.2x10^2 PFU Tick-borne encephalitis virus Absettarov infected in PEK cells assessed as inhibition of viral titer at 200 EC50 for simultaneous addition of compound/cells/virus incubated for 1 hr measured after 6 days by gentian violet staining. The format is functional.
For data set [14], the system named is Tick-borne encephalitis virus. Description: Antiviral activity against 2.2x10^3 PFU Tick-borne encephalitis virus Absettarov infected in PEK cells assessed as inhibition of viral titer at 200 EC50 for simultaneous addition of compound/cells/virus incubated for 1 hr measured after 6 days by gentian violet staining. The format is functional.
Data set [15] concerns Tick-borne encephalitis virus. The data set can be described thus: Antiviral activity against 2.2x10^4 PFU Tick-borne encephalitis virus Absettarov infected in PEK cells assessed as inhibition of viral titer at 200 EC50 for simultaneous addition of compound/cells/virus incubated for 1 hr measured after 6 days by gentian violet staining. The format is functional.
Data set [16] concerns Tick-borne encephalitis virus. The data set can be described thus: Antiviral activity against 2.2x10^5 PFU Tick-borne encephalitis virus Absettarov infected in PEK cells assessed as inhibition of viral titer at 200 EC50 for simultaneous addition of compound/cells/virus incubated for 1 hr measured after 6 days by gentian violet staining. The format is functional.
A short description of data set [17]: Cytotoxicity against PEK cells assessed as cytopathic effect at 50 uM after 7 days relative to control. The format is cell-based, Sus scrofa. The conditions noted are these: pig, 168 h. (Cytopathic effects are the visible damage that an infection or toxin causes in cultured cells.)

For orientation: CC50 means the concentration that lowers cell viability or growth by half. By EC50 is commonly meant the midpoint of the concentration-response curve. For `O=c1[nH]c(=O)n([C@H]2C[C@H](O)[C@@H](CO)O2)cc1C#Cc1ccc2ccc3cccc4ccc1c2c34`, in data set [1], the CC50 at 24 h was over 50 µM. Moreover, in data set [2], the half-maximal cytotoxic concentration (CC50) at 168 h was over 50 µM. Moreover, the EC50 in [3] worked out at 980 nM; in data set [4] it was 42000 nM; in data set [5], 600 nM.
For orientation: IC50 means the midpoint of a concentration-inhibition curve. The compound `O=c1[nH]c(=O)n([C@@H]2O[C@H](CO)[C@@H](O)[C@@H]2O)cc1C#Cc1ccc2c3cccc4cccc(c5cccc1c52)c43` showed a CC50 at 24 h in data set [1] of over 50 µM. For the same compound, the CC50 at 168 h in data set [2] was 4.4 µM. Further, the EC50 in data set [3] came to 18 nM; in data set [4], 2700 nM; in data set [5] it was 40 nM. The IC50 (in the data set on Human alphaherpesvirus 1; in the data set on Human alphaherpesvirus 2; in data set [6]; in the data set on Sindbis virus; in the data set on Hepatitis C virus; in the data set on Influenza A virus [7]) was 2 nM throughout. Moreover, the IC50 (in data set [8]; in [9]; in the data set on Influenza A virus [10]) was 2 nM in each case.
On to `O=c1[nH]c(=O)n([C@H]2C[C@H](O)[C@@H](CO)O2)cc1C#CCOCc1ccc2c3cccc4cccc(c5cccc1c52)c43`, for which the CC50 at 24 h in [1] was over 50 µM. The compound further displayed a cytotoxic concentration (CC50) at 168 h in data set [2] of over 50 µM. Also, the EC50 is 500 nM in [3] and over 50000 nM in [4]. Also, the “inhibition (INH)” value in data set [11] is given as 100%; in [12], 100%; in [13], 100%; in data set [14], 100%; in [15], 99.9988%; in data set [16], 99.9965%. In addition, the Activity in data set [17] is on record as 25%.
On to `O=c1[nH]c(=O)n([C@H]2C[C@H](O)[C@@H](CO)O2)cc1C#Cc1ccc2c3cccc4cccc(c5cccc1c52)c43`, for which the CC50 at 24 h in data set [1] was over 50 µM. Also, the cytotoxic concentration (CC50) at 168 h in data set [2] was over 50 µM. The EC50 in [3] amounted to 24 nM; in data set [4], 1560 nM; in [5], 40 nM. The “inhibition (INH)” value in data set [11] is given as 100%; in data set [12], 100%; in data set [13] it was 100%; in data set [14], 100%; in data set [15], 99.9988%; in data set [16], 99.9995%. Besides, the IC50 (in the data set on Human alphaherpesvirus 1; in the data set with Human alphaherpesvirus 2; in data set [6]; with Sindbis virus; in the data set on Hepatitis C virus; with Influenza A virus [7]) was 2 nM in each case. The IC50 (in data set [8]; in [9]; with Influenza A virus [10]) was 2 nM each time. The Activity in data set [17] is 25%.

These data come from ChEMBL document CHEMBL3797183, “Rigid amphipathic nucleosides suppress reproduction of the tick-borne encephalitis virus” (Medchemcomm, 2016).
